Measured values: patent publication US5593984A, “Cephalosporin derivatives” (Yuhan Corporation, priority 1992, dated 1997)
Converted amounts (≈) assume the structure as drawn.

Legend:
Assay type in all cases: cell-based
[1] = system: Ent. aerogenes IFO 12979; test: MIC by agar dilution, Ent. aerogenes IFO 12979; conditions: Klebsiella aerogenes, IFO12979, 17 h, Mueller-Hinton agar, read-out: Minimal Inhibitory Concentration (MIC)
Protocol: (§1) These MIC values were determined by agar dilution method: that is, two-fold dilutions of each of the test compounds were made and dispersed in a Mueller-Hinton agar medium; standard test strain which had the 10^6 CFU (Colony Forming Unit) per ml was inoculated on the medium with microplanter (Toyo, Japan), and incubated at 35°-37° C. for 17±1 hours. The structures of Ceftazidime (CAZ) and Cefotaxime (CTX) which are used as control compounds are as follows: [drawing 12]

[2] = system: Ent. cloacae IFO 13535; test: MIC by agar dilution, Ent. cloacae IFO 13535; conditions: Enterobacter cloacae, IFO13535, 17 h; Ent. cloacae IFO 13535; agar dilution, Mueller-Hinton agar; read-out: Minimal Inhibitory Concentration (MIC)
Protocol: as §1

[3] = system: K. pneumoniae NCTC 9632; test: MIC by agar dilution, K. pneumoniae NCTC 9632; conditions: Klebsiella pneumoniae, NCTC9632, 17 h; K. pneumoniae NCTC 9632; agar dilution, Mueller-Hinton agar; read-out: Minimal Inhibitory Concentration (MIC)
Protocol: as §1

[4] = system: Prov. stuartii IFO 12930; test: MIC by agar dilution, Prov. stuartii IFO 12930; conditions: Providencia stuartii, IFO12930, 17 h, Mueller-Hinton agar, read-out: Minimal Inhibitory Concentration (MIC)
Protocol: as §1

[5] = system: S. epidermidis ATCC 12228; test: MIC by agar dilution, S. epidermidis ATCC 12228; conditions: Staphylococcus epidermidis, ATCC12228, 17 h; S. epidermidis ATCC 12228; agar dilution, Mueller-Hinton agar; read-out: Minimal Inhibitory Concentration (MIC)
Protocol: as §1

[6] = system: M. morganii DY-1; test: MIC by agar dilution, M. morganii DY-1; conditions: Morganella morganii, DY1, 17 h; M. morganii DY-1; agar dilution, Mueller-Hinton agar; read-out: Minimal Inhibitory Concentration (MIC)
Protocol: as §1

[7] = system: Staph. aureus C-57; test: MIC by agar dilution, Staph. aureus C-57; conditions: Staphylococcus aureus, C57, 17 h, Mueller-Hinton agar, read-out: Minimal Inhibitory Concentration (MIC)
Protocol: as §1

[8] = system: Staph. aureus C-5216; test: MIC by agar dilution, Staph. aureus C-5216; conditions: Staphylococcus aureus, C5216, 17 h, Mueller-Hinton agar, read-out: Minimal Inhibitory Concentration (MIC)
Protocol: as §1

[9] = system: Staph. aureus C-5113; test: MIC by agar dilution, Staph. aureus C-5113; conditions: Staphylococcus aureus, C5113, 17 h, Mueller-Hinton agar, read-out: Minimal Inhibitory Concentration (MIC)
Protocol: as §1

[10] = system: P. vulgaris NCTC 8313; test: MIC by agar dilution, P. vulgaris NCTC 8313; conditions: Proteus vulgaris, NCTC8313, 17 h; P. vulgaris NCTC 8313; agar dilution, Mueller-Hinton agar; read-out: Minimal Inhibitory Concentration (MIC)
Protocol: as §1

[11] = system: Staph. aureus ATCC 6538P; test: MIC by agar dilution, Staph. aureus ATCC 6538P; conditions: Staphylococcus aureus, ATCC6538P, 17 h; Staph. aureus ATCC 6538P; agar dilution, Mueller-Hinton agar; read-out: Minimal Inhibitory Concentration (MIC)
Protocol: as §1

[12] = system: Ps. aeruginosa DY-2; test: MIC by agar dilution, Ps. aeruginosa DY-2; conditions: Pseudomonas aeruginosa, DY2, 17 h; Ps. aeruginosa DY-2; agar dilution, Mueller-Hinton agar; read-out: Minimal Inhibitory Concentration (MIC)
Protocol: as §1

[13] = system: Staph. aureus Smith; test: MIC by agar dilution, Staph. aureus Smith; conditions: Staphylococcus aureus, 17 h, Mueller-Hinton agar, read-out: Minimal Inhibitory Concentration (MIC)
Protocol: as §1

[14] = system: E. coli NIHJ JC-2; test: MIC by agar dilution, E. coli NIHJ JC-2; conditions: Escherichia coli, NIHJJC2, 17 h; E. coli NIHJ JC-2; agar dilution, Mueller-Hinton agar; read-out: Minimal Inhibitory Concentration (MIC)
Protocol: as §1

[15] = system: Ps. aeruginosa NCTC 10490; test: MIC by agar dilution, Ps. aeruginosa NCTC 10490; conditions: Pseudomonas aeruginosa, NCTC10490, 17 h, Mueller-Hinton agar, read-out: Minimal Inhibitory Concentration (MIC)
Protocol: as §1

[16] = system: E. coli DY-1; test: MIC by agar dilution, E. coli DY-1; conditions: Escherichia coli, DY1, 17 h; E. coli DY-1; agar dilution, Mueller-Hinton agar; read-out: Minimal Inhibitory Concentration (MIC)
Protocol: as §1

[17] = system: E. coli No. 29; test: MIC by agar dilution, E. coli No. 29; conditions: Escherichia coli, 17 h; E. coli No. 29; agar dilution, Mueller-Hinton agar; read-out: Minimal Inhibitory Concentration (MIC)
Protocol: as §1

[18] = system: B. subtilis ATCC 6633; test: MIC by agar dilution, B. subtilis ATCC 6633; conditions: Bacillus subtilis, ATCC6633, 17 h; B. subtilis ATCC 6633; agar dilution, Mueller-Hinton agar; read-out: Minimal Inhibitory Concentration (MIC)
Protocol: as §1

[19] = system: Ps. aeruginosa ATCC 10145; test: MIC by agar dilution, Ps. aeruginosa ATCC 10145; conditions: Pseudomonas aeruginosa, ATCC10145, 17 h, Mueller-Hinton agar, read-out: Minimal Inhibitory Concentration (MIC)
Protocol: as §1

[20] = system: Ser. marcescens IFO 12648; test: MIC by agar dilution, Ser. marcescens IFO 12648; conditions: Serratia marcescens, IFO12648, 17 h; Ser. marcescens IFO 12648; agar dilution, Mueller-Hinton agar; read-out: Minimal Inhibitory Concentration (MIC)
Protocol: as §1

MIC [1] | MIC [2] | MIC [3] | MIC [4] | MIC [5] | MIC [6] | MIC [7] | MIC [8] | MIC [9] | MIC [10] | MIC [11] | MIC [12] | MIC [13] | MIC [14] | MIC [15] | MIC [16] | MIC [17] | MIC [18] | MIC [19] | MIC [20] | SMILES
≤ 0.006 µg/mL | 0.025 µg/mL (≈ 0.0458 µM) | ≤ 0.006 µg/mL | ≤ 0.006 µg/mL | 0.025 µg/mL (≈ 0.0458 µM) | ≤ 0.006 µg/mL | 12.5 µg/mL (≈ 22.9 µM) | 0.2 µg/mL (≈ 0.367 µM) | 0.2 µg/mL (≈ 0.367 µM) | ≤ 0.006 µg/mL | 0.2 µg/mL (≈ 0.367 µM) | 1.56 µg/mL (≈ 2.86 µM) | 0.2 µg/mL (≈ 0.367 µM) | 0.012 µg/mL (≈ 0.022 µM) | 0.2 µg/mL (≈ 0.367 µM) | ≤ 0.006 µg/mL | ≤ 0.006 µg/mL | 0.1 µg/mL (≈ 0.183 µM) | 0.39 µg/mL (≈ 0.715 µM) | ≤ 0.006 µg/mL | Nc1nc(C(=NOCCF)C(=O)NC2C(=O)N3C(C(=O)[O-])=C(C[n+]4ccn5cccc5c4)CSC23)cs1 (stereo not drawn) [Ex. 5, 7-β-[(Z)-2-(2-aminothiazol-4-yl)-2-(2-fluoroethoxyimino)acetamido]-3-(pyrrolo[1,2-a]pyrazinium-2-yl)methyl-3-cephem-4-carboxylate]
0.012 µg/mL (≈ 0.0226 µM) | 0.05 µg/mL (≈ 0.0941 µM) | 0.012 µg/mL (≈ 0.0226 µM) | ≤ 0.006 µg/mL | 0.1 µg/mL (≈ 0.188 µM) | ≤ 0.006 µg/mL | 25 µg/mL (≈ 47 µM) | 0.78 µg/mL (≈ 1.47 µM) | 1.56 µg/mL (≈ 2.93 µM) | ≤ 0.006 µg/mL | 0.2 µg/mL (≈ 0.376 µM) | 3.13 µg/mL (≈ 5.89 µM) | 0.39 µg/mL (≈ 0.734 µM) | 0.012 µg/mL (≈ 0.0226 µM) | 0.2 µg/mL (≈ 0.376 µM) | ≤ 0.006 µg/mL | ≤ 0.006 µg/mL | 0.2 µg/mL (≈ 0.376 µM) | 0.39 µg/mL (≈ 0.734 µM) | 0.012 µg/mL (≈ 0.0226 µM) | Nc1nc(C(=NOCF)C(=O)NC2C(=O)N3C(C(=O)[O-])=C(C[n+]4ccn5cccc5c4)CSC23)cs1 (stereo not drawn) [Ex. 6, 7-β-[(Z)-2-(2-aminothiazol-4-yl)-2-fluoromethoxyiminoacetamido]-3-(pyrrolo[1,2-a]pyrazinium-2-yl)methyl-3-cephem-4-carboxylate]
0.1 µg/mL (≈ 0.2 µM) | 0.39 µg/mL (≈ 0.781 µM) | 0.1 µg/mL (≈ 0.2 µM) | 0.012 µg/mL (≈ 0.024 µM) | 0.025 µg/mL (≈ 0.05 µM) | 0.1 µg/mL (≈ 0.2 µM) | 25 µg/mL (≈ 50 µM) | 0.39 µg/mL (≈ 0.781 µM) | 0.39 µg/mL (≈ 0.781 µM) | 0.2 µg/mL (≈ 0.4 µM) | 0.1 µg/mL (≈ 0.2 µM) | 25 µg/mL (≈ 50 µM) | 0.39 µg/mL (≈ 0.781 µM) | 0.05 µg/mL (≈ 0.1 µM) | 0.39 µg/mL (≈ 0.781 µM) | 0.05 µg/mL (≈ 0.1 µM) | 0.05 µg/mL (≈ 0.1 µM) | 0.2 µg/mL (≈ 0.4 µM) | 1.56 µg/mL (≈ 3.12 µM) | 0.1 µg/mL (≈ 0.2 µM) | Nc1nc(/C(=N\O)C(=O)N[C@@H]2C(=O)N3C(C(=O)[O-])=C(C[n+]4ccn5cccc5c4)CS[C@H]23)cs1 [Ex. 7, 7-β-[(Z)-2-(2-aminothiazol-4-yl)-2-hydroxyiminoacetamido]-3-(pyrrolo[1,2-a]pyrazinium-2-yl)methyl-3-cephem-4-carboxylate]
0.012 µg/mL (≈ 0.0203 µM) | 1.56 µg/mL (≈ 2.65 µM) | 0.012 µg/mL (≈ 0.0203 µM) | ≤ 0.006 µg/mL | 0.1 µg/mL (≈ 0.17 µM) | 0.025 µg/mL (≈ 0.0424 µM) | 25 µg/mL (≈ 42.4 µM) | 0.78 µg/mL (≈ 1.32 µM) | 0.39 µg/mL (≈ 0.661 µM) | 0.012 µg/mL (≈ 0.0203 µM) | 0.1 µg/mL (≈ 0.17 µM) | 3.13 µg/mL (≈ 5.31 µM) | 0.2 µg/mL (≈ 0.339 µM) | 0.012 µg/mL (≈ 0.0203 µM) | 0.2 µg/mL (≈ 0.339 µM) | ≤ 0.006 µg/mL | ≤ 0.006 µg/mL | 0.1 µg/mL (≈ 0.17 µM) | 0.78 µg/mL (≈ 1.32 µM) | 0.012 µg/mL (≈ 0.0203 µM) | CON=C(C(=O)NC1C(=O)N2C(C(=O)[O-])=C(C[n+]3ccn4c(SCCO)ccc4c3)CSC12)c1csc(N)n1 (stereo not drawn) [Ex. 8, 7-β-[(Z)-2-(2-aminothiazol-4-yl)-2-methoxyiminoacetamido]-3-[6-(2-hydroxyethylthio)pyrrolo[1,2-a]pyrazinium-2-yl]methyl-3-cephem-4-carboxylate]
